From patent publication US6737383B1, “Herbicidal oxadiazolidines” (priority 1999, dated 2004)

Tests used:
cocklebur = assay: Test B pre/postemergence cocklebur; format: in vivo, Xanthium strumarium; settings: for Cocklebur plant response rating (0 to 10 scale): 0 is no effect
Summary of the method: (§1)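 Response is a visual 0-to-10 score relative to untreated plants, where 0 means no effect and 10 means complete control, taken twelve to sixteen days after application. Treatments went onto soil at planting and onto foliage of 1- to 4-leaf plants, using a surfactant-containing non-phytotoxic solvent.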

winter wheat [1] = assay: Test E winter wheat; format: in vivo, Triticum aestivum; settings: Preemergence
wild oat [2] = assay: Test B pre/postemergence wild oat; format: in vivo, Avena fatua; settings: for Wild oats plant response rating (0 to 10 scale): 0 is no effect
Summary of the method: as §1

winter barley = assay: Test E winter barley; format: in vivo, Hordeum vulgare; settings: Preemergence
crabgrass = assay: Test B pre/postemergence crabgrass; format: in vivo, Digitaria sanguinalis; settings: for Crabgrass plant response rating (0 to 10 scale): 0 is no effect
Summary of the method: as §1

wild oat [3] = assay: Test E wild oat; format: in vivo, Avena fatua; settings: Preemergence; for Wild oat plant response rating (0 to 100 scale): Rate 250 g/ha
blackgrass = assay: Test E blackgrass; format: in vivo, Alopecurus myosuroides; settings: Preemergence
Italian ryegrass = assay: Test E Italian ryegrass; format: in vivo, Lolium multiflorum; settings: Preemergence
wheat = assay: Test B pre/postemergence wheat; format: in vivo, Triticum aestivum; settings: for Wheat plant response rating (0 to 10 scale): 0 is no effect
Summary of the method: as §1

green foxtail = assay: Test E green foxtail; format: in vivo, Setaria viridis; settings: Preemergence
winter wheat [4] = assay: Test E winter wheat; format: in vivo, Triticum aestivum; settings: Postemergence; for Wheat (winter) plant response rating: 0 to 100 scale where 0 is no effect and 100 is complete control
Summary of the method: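 Visual evaluation versus untreated controls after about 21 to 28 days in the greenhouse. Compound was in a surfactant-containing non-phytotoxic solvent; postemergence plants were treated at the 1- to 4-leaf stage, grown in a 60:40 sandy loam and potting mix blend.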

[5] = Postemergence, Rate 125 g/ha, scale of 0 to 10 where 0 is no effect and 10 is complete control
[6] = Postemergence, Rate 250 g/ha, scale 0 to 10, 0 no effect, 10 complete control
[7] = Preemergence, Rate 62 g/ha, scale 0 to 10 (0 no effect, 10 complete control)
[8] = Preemergence, Rate 125 g/ha, scale 0 to 10 (0 no effect, 10 complete control)
[9] = Preemergence, Rate 250 g/ha, scale of 0 to 10 where 0 is no effect and 10 is complete control
[10] = Preemergence, Rate 500 g/ha, scale 0 to 10 (0 no effect, 10 complete control)
[11] = Rate 62 g/ha, Postemergence, scale of 0 to 10 where 0 is no effect and 10 is complete control
[12] = Rate 500 g/ha, Postemergence, scale 0 to 10, 0 no effect, 10 complete control
[13] = Rate 62 g/ha, 0 to 100 scale, 0 no effect, 100 complete control
[14] = Rate 125 g/ha, 0 to 100 scale (0 no effect, 100 complete control)
[15] = Rate 500 g/ha, 0 to 100 scale where 0 is no effect and 100 is complete control
[16] = Preemergence, Rate 125 g/ha, 10 is complete control
[17] = Rate 250 g/ha, Postemergence, scale 0 to 10, 0 is no effect, 10 is complete control
[18] = Rate 500 g/ha, 0 to 100 scale, 0 no effect, 100 complete control
[19] = Preemergence, Rate 250 g/ha, scale 0 to 10, 0 is no effect, 10 is complete control
[20] = Rate 500 g/ha, Postemergence, scale 0 to 10
[21] = Preemergence, Rate 62 g/ha, scale of 0 to 10 where 0 is no effect and 10 is complete control
[22] = Rate 1000 g/ha, 0 to 100 scale where 0 is no effect and 100 is complete control

CCn1c(=O)on(C(=O)N(c2ccc(F)cc2F)C(C)C)c1=O [Compound 116]
Cocklebur plant response rating (cocklebur; [5]): 0
Cocklebur plant response rating (cocklebur; [6]): 3
Cocklebur plant response rating (cocklebur; [7]): 0
Plant response rating, Cocklebur (cocklebur; [8]): 0
Plant response rating, Cocklebur (cocklebur; [9]): 0
Cocklebur plant response rating (cocklebur; [10]): 5
Cocklebur plant response rating (cocklebur; [11]): 0
Cocklebur plant response rating (cocklebur; [12]): 5
Plant response rating, Wheat (winter) (winter wheat [1]; [13]): 30
Plant response rating, Wheat (winter) (winter wheat [1]; [14]): 55
Plant response rating, Wheat (winter) (winter wheat [1]; Rate 250 g/ha, 0 to 100 scale): 30
Plant response rating, Wheat (winter) (winter wheat [1]; [15]): 100
Wild oats plant response rating (wild oat [2]; [5]): 7
Wild oats plant response rating (wild oat [2]; [7]): 7
Wild oats plant response rating (0 to 10 scale) (wild oat [2]; [16]): 7
Plant response rating, Wild oats (wild oat [2]; [9]): 10
Wild oats plant response rating (wild oat [2]; [10]): 10
Wild oats plant response rating (wild oat [2]; [11]): 3
Plant response rating, Wild oats (wild oat [2]; [17]): 7
Wild oats plant response rating (wild oat [2]; [12]): 8
Plant response rating, Barley (winter) (winter barley; [13]): 10
Plant response rating, Barley (winter) (winter barley; [14]): 30
Plant response rating, Barley (winter) (winter barley; Rate 250 g/ha, 0 to 100 scale): 70
Plant response rating, Barley (winter) (winter barley; [15]): 80
Crabgrass plant response rating (crabgrass; [5]): 9
Crabgrass plant response rating (crabgrass; [6]): 9
Crabgrass plant response rating (crabgrass; [7]): 8
Plant response rating, Crabgrass (crabgrass; [8]): 10
Plant response rating, Crabgrass (crabgrass; [9]): 10
Crabgrass plant response rating (crabgrass; [10]): 10
Crabgrass plant response rating (crabgrass; [11]): 9
Crabgrass plant response rating (crabgrass; [12]): 9
Plant response rating, Wild oat (wild oat [3]; [13]): 20
Plant response rating, Wild oat (wild oat [3]; [14]): 30
Plant response rating, Wild oat (wild oat [3]; [15]): 80
Plant response rating, Blackgrass (blackgrass; [13]): 40
Plant response rating, Blackgrass (blackgrass; [14]): 50
Plant response rating, Blackgrass (blackgrass; Rate 250 g/ha, 0 to 100 scale): 45
Plant response rating, Blackgrass (blackgrass; [15]): 100
Plant response rating, I. Ryegrass (Italian ryegrass; [13]): 50
Plant response rating, I. Ryegrass (Italian ryegrass; [14]): 30
Plant response rating, I. Ryegrass (Italian ryegrass; Rate 250 g/ha, 0 to 100 scale): 60
Plant response rating, I. Ryegrass (Italian ryegrass; [15]): 100
Wheat plant response rating (wheat; [5]): 6
Wheat plant response rating (wheat; [7]): 3
Wheat plant response rating (0 to 10 scale) (wheat; [16]): 5
Plant response rating, Wheat (wheat; [9]): 8
Wheat plant response rating (wheat; [10]): 8
Wheat plant response rating (wheat; [11]): 0
Plant response rating, Wheat (wheat; [17]): 7
Wheat plant response rating (wheat; [12]): 8
Plant response rating, Green foxtail (green foxtail; [13]): 65
Plant response rating, Green foxtail (green foxtail; [14]): 50
Plant response rating, Green foxtail (green foxtail; Rate 250 g/ha, 0 to 100 scale): 100
Plant response rating, Wheat (winter) (winter wheat [4]; Rate 62 g/ha, 0 to 100 scale): 20
Plant response rating, Wheat (winter) (winter wheat [4]; Rate 125 g/ha, 0 to 100 scale): 10
Plant response rating, Wheat (winter) (winter wheat [4]; Rate 250 g/ha, 0 to 100 scale (0 no effect, 100 complete control)): 45
Plant response rating, Wheat (winter) (winter wheat [4]; [18]): 10

CC(C)N(C(=O)n1oc(=O)n(CCCl)c1=O)c1ccc(F)cc1 [Compound 148]
Cocklebur plant response rating (cocklebur; [5]): 0
Cocklebur plant response rating (0 to 10 scale) (cocklebur; [16]): 0
Cocklebur plant response rating (cocklebur; [19]): 0
Cocklebur plant response rating (cocklebur; [10]): 0
Cocklebur plant response rating (cocklebur; [11]): 0
Plant response rating, Cocklebur (cocklebur; [17]): 0
Cocklebur plant response rating (cocklebur; [20]): 3
Plant response rating, Wheat (winter) (winter wheat [1]; [13]): 0
Plant response rating, Wheat (winter) (winter wheat [1]; [14]): 0
Wheat (winter) plant response rating (0 to 100 scale) (winter wheat [1]; Rate 250 g/ha): 0
Wild oats plant response rating (wild oat [2]; [5]): 1
Wild oats plant response rating (wild oat [2]; [7]): 6
Wild oats plant response rating (0 to 10 scale) (wild oat [2]; [16]): 6
Wild oats plant response rating (wild oat [2]; [19]): 6
Wild oats plant response rating (wild oat [2]; [10]): 8
Wild oats plant response rating (wild oat [2]; [11]): 0
Plant response rating, Wild oats (wild oat [2]; [17]): 5
Wild oats plant response rating (wild oat [2]; [20]): 5
Plant response rating, Barley (winter) (winter barley; [13]): 10
Plant response rating, Barley (winter) (winter barley; [14]): 10
Barley (winter) plant response rating (0 to 100 scale) (winter barley; Rate 250 g/ha): 10
Crabgrass plant response rating (crabgrass; [5]): 8
Crabgrass plant response rating (crabgrass; [7]): 5
Crabgrass plant response rating (0 to 10 scale) (crabgrass; [16]): 8
Crabgrass plant response rating (crabgrass; [19]): 9
Crabgrass plant response rating (crabgrass; [10]): 9
Crabgrass plant response rating (crabgrass; [11]): 8
Plant response rating, Crabgrass (crabgrass; [17]): 8
Crabgrass plant response rating (crabgrass; [20]): 9
Plant response rating, Wild oat (wild oat [3]; [13]): 10
Plant response rating, Wild oat (wild oat [3]; [14]): 15
Wild oat plant response rating (0 to 100 scale) (wild oat [3]): 40
Plant response rating, Blackgrass (blackgrass; [13]): 20
Plant response rating, Blackgrass (blackgrass; [14]): 50
Blackgrass plant response rating (0 to 100 scale) (blackgrass; Rate 250 g/ha): 50
Plant response rating, I. Ryegrass (Italian ryegrass; [13]): 20
Plant response rating, I. Ryegrass (Italian ryegrass; [14]): 20
I. Ryegrass plant response rating (0 to 100 scale) (Italian ryegrass; Rate 250 g/ha): 30
Wheat plant response rating (wheat; [5]): 1
Wheat plant response rating (wheat; [7]): 0
Wheat plant response rating (0 to 10 scale) (wheat; [16]): 3
Wheat plant response rating (wheat; [19]): 3
Wheat plant response rating (wheat; [10]): 6
Wheat plant response rating (wheat; [11]): 0
Plant response rating, Wheat (wheat; [17]): 3
Wheat plant response rating (wheat; [20]): 5
Plant response rating, Green foxtail (green foxtail; [13]): 20
Plant response rating, Green foxtail (green foxtail; [14]): 30
Green foxtail plant response rating (0 to 100 scale) (green foxtail; Rate 250 g/ha): 55
Plant response rating, Wheat (winter) (winter wheat [4]; Rate 62 g/ha, 0 to 100 scale): 0
Plant response rating, Wheat (winter) (winter wheat [4]; Rate 125 g/ha, 0 to 100 scale): 10
Wheat (winter) plant response rating (winter wheat [4]; Rate 250 g/ha): 80

CC1CCCCC1n1c(=O)on(C(=O)N(c2ccc(F)cc2)C(C)C)c1=O (stereo not drawn) [Compound 161]
Cocklebur plant response rating (cocklebur; [5]): 0
Cocklebur plant response rating (cocklebur; [21]): 0
Cocklebur plant response rating (0 to 10 scale) (cocklebur; [16]): 0
Cocklebur plant response rating (cocklebur; [19]): 0
Cocklebur plant response rating (cocklebur; [10]): 0
Cocklebur plant response rating (cocklebur; [11]): 0
Plant response rating, Cocklebur (cocklebur; [17]): 0
Cocklebur plant response rating (cocklebur; [20]): 3
Wheat (winter) plant response rating (0 to 100 scale) (winter wheat [1]; Rate 250 g/ha): 10
Plant response rating, Wheat (winter) (winter wheat [1]; [15]): 20
Plant response rating, Wheat (winter) (winter wheat [1]; [22]): 45
Wild oats plant response rating (wild oat [2]; [21]): 0
Wild oats plant response rating (0 to 10 scale) (wild oat [2]; [16]): 0
Wild oats plant response rating (wild oat [2]; [19]): 3
Wild oats plant response rating (wild oat [2]; [10]): 6
Plant response rating, Wild oats (wild oat [2]; [17]): 0
Wild oats plant response rating (wild oat [2]; [20]): 0
Barley (winter) plant response rating (0 to 100 scale) (winter barley; Rate 250 g/ha): 30
Plant response rating, Barley (winter) (winter barley; [15]): 40
Plant response rating, Barley (winter) (winter barley; [22]): 40
Crabgrass plant response rating (crabgrass; [5]): 2
Crabgrass plant response rating (crabgrass; [21]): 4
Crabgrass plant response rating (0 to 10 scale) (crabgrass; [16]): 8
Crabgrass plant response rating (crabgrass; [19]): 9
Crabgrass plant response rating (crabgrass; [10]): 9
Crabgrass plant response rating (crabgrass; [11]): 0
Plant response rating, Crabgrass (crabgrass; [17]): 7
Crabgrass plant response rating (crabgrass; [20]): 9
Wild oat plant response rating (0 to 100 scale) (wild oat [3]): 50
Plant response rating, Wild oat (wild oat [3]; [15]): 50
Plant response rating, Wild oat (wild oat [3]; [22]): 60
Blackgrass plant response rating (0 to 100 scale) (blackgrass; Rate 250 g/ha): 30
Plant response rating, Blackgrass (blackgrass; [15]): 50
Plant response rating, Blackgrass (blackgrass; [22]): 55
I. Ryegrass plant response rating (0 to 100 scale) (Italian ryegrass; Rate 250 g/ha): 60
Plant response rating, I. Ryegrass (Italian ryegrass; [15]): 65
Plant response rating, I. Ryegrass (Italian ryegrass; [22]): 85
Wheat plant response rating (wheat; [21]): 0
Wheat plant response rating (0 to 10 scale) (wheat; [16]): 0
Wheat plant response rating (wheat; [19]): 0
Wheat plant response rating (wheat; [10]): 2
Plant response rating, Wheat (wheat; [17]): 0
Wheat plant response rating (wheat; [20]): 0
Green foxtail plant response rating (0 to 100 scale) (green foxtail; Rate 250 g/ha): 60
Plant response rating, Green foxtail (green foxtail; [15]): 70
Plant response rating, Green foxtail (green foxtail; [22]): 90
Plant response rating, Wheat (winter) (winter wheat [4]; Rate 1000 g/ha, 0 to 100 scale, 0 is no effect and 100 is complete control): 50
Plant response rating, Wheat (winter) (winter wheat [4]; [18]): 35
Wheat (winter) plant response rating (winter wheat [4]; Rate 250 g/ha): 30
